In publication PMC8717366, “Synthesis and Pharmacological Characterization of Visabron, a Backbone Cyclic Peptide Dual Antagonist of α4β1 (VLA-4)/α9β1 Integrin for Therapy of Multiple Sclerosis” (JACS Au, 2021) one finds IC50 and half-life data, which are given here for one molecule.

Peptide text beside a SMILES is read from it.

The target of one data set is T1, α1β1-collagen IV (Homo sapiens, UniProt P05556+P56199).
T1 construct: expressed in transfected cells; host or cells: K562 transfected with α1 integrin (gift of Dr. M. Hemler)
Briefly: Adhesion of α1-K562 overexpressor cells to immobilized collagen IV. The data set is classed as cell-based. To be noted: α1-K562 overexpressing cells, collagen IV; n=6; Table S6; read-out: IC50 α1β1 (linear peptides). As to the method:
(§1) Cell adhesion assay was carried out as previously described[47] with minor modifications. The day before the experiment, each well was coated with VCAM-1 (3 mg/mL) immobilized on the 96-well plate in PBS by overnight incubation at 4 °C. Thereafter, nonspecific binding was blocked by incubating the wells with 1% (w/v) bovine serum albumin (BSA) in Hank’s Balanced Salt Solution (HBSS) containing 5 mM MgCl2 at room temperature for 1 h before use. The cells were labeled by incubation with 12.5 μM 5-chloromethylfluorescein diacetate (CMFDA) in HBSS without 1% BSA at 37 °C for 30 min. The labeled cells were then centrifuged at 1000 rpm and washed twice with HBSS containing 1% BSA to remove excess CMFDA. Labeled cells (about 1 × 10^5 cells/well) were plated on each well in the presence or absence of visabrons and incubated at 37 °C for 60 min. Unbound cells were removed by washing the wells three times with 1% (w/v) BSA in HBSS, and bound cells were lysed by the addition of 0.5% Triton X-100 (diluted in DDW). The fluorescence in each well was quantified with a SPECTRAFluor Plus plate reader (Tecan), at λex = 485 nm and λem = 530 nm. To determine the number of adhered cells from the fluorescence values, a standard curve was generated by serial dilution of known numbers of CMFDA-labeled cells. […]
(§2) Table S6. TMLD- linear peptides inhibition of adhesion of integrin expressing cells to the respective immobilized ligands a a The cells were incubated for 30 min at 37 °C with the cells (1 x 105) in the 96 -well plate, previously covered with extracellular matrix ligand, in 100 µL of HBSS containing calcium and magnesium. After being washed with the same buffer, the adhered cells were lysed by Triton X-100, and the plate was read using Tecan spectrofluorimeter. The inhibitory dose 50% (IC 50) values represent ing mean ± standard deviatio ns (n=6) were calculated from dose response curves. bJurkat cells,VCAM -1; c α9-SW480 overexpressing cells, VCAM-1; d α1-K562 overexpressing cells, collagen IV ;e α2-K562 overexpressing cells, collagen I; f K562 wild type

For the next data set, the target named is T2, α2β1-collagen I (Homo sapiens, UniProt P05556+P17301).
T2 construct: expressed in transfected cells; host or cells: K562 transfected with α2 integrin (gift of Dr. M. Hemler)
Description: Adhesion of α2-K562 overexpressor cells to immobilized collagen I. To be noted: α2-K562 overexpressing cells, collagen I; n=6; Table S6; read-out: IC50 α2β1 (linear peptides). It counts as cell-based. As for the experimental part: as §1, §2

The next data set deals with T3, α5β1-fibronectin (Homo sapiens, UniProt P05556+P08648).
T3 construct: host or cells: K562 wild type
Description: Adhesion of wild-type K562 cells to immobilized fibronectin. It counts as cell-based. To be noted: K562 wild type cells, fibronectin; n=6; Table S6; read-out: IC50 α5β1 (linear peptides). As to the method: as §1, §2

In data set [1] the target is T4, α4β1 (Jurkat lymphocytes-VCAM-1) (Homo sapiens, UniProt P05556+P13612).
T4 construct: host or cells: Jurkat (untreated or TNFα-treated)
Briefly: Adhesion of Jurkat lymphocytes to immobilized VCAM-1. The note with it: Jurkat cells, VCAM-1; n=6; Table S6; read-out: IC50 α4β1 (linear peptides). The data set is classed as cell-based. As for the experimental part: as §1, §2

A further data set has as its target T5, α9β1 (Homo sapiens, UniProt P05556+Q13797).
T5 construct: generated by transfection with full-length α9 expression plasmid pcDNAIneoa9; expressed in transfected cells; host or cells: SW480 transfected with pcDNAIneoa9
Description: Adhesion of α9-SW480 overexpressing cells to VCAM-1. It counts as cell-based. To be noted: n=6, Table S6, read-out: IC50 α9β1 (linear peptides). As for the experimental part: as §2, with “type […]” for “type”
(1 picture or pasted object on this page, not shown here)

The format of data set [2] is in vitro ADME, male Wistar rats. The note with it: incubation in rat plasma, 37 °C. As for the experimental part:
Figure S7- Metabolic stability of linear (blue) and cyclic Visabrons in rat plasma (n=3) […]
(orange, green, red). The […]
amount of peptides is presented as a percentage of the sample at time 0.
Figure S8- A. Calibration curve of Visabron c(4-4) (prepared by spiking the standard working stock solution with 15 μl of the different concentration, 20 μl metoprolol (10 μg/mL) and 135 -μl blank rat plasma. B. Profile of plasma concentration of Visabron c(4-4) vs time in rats following i.v. bolus administr ation of 0.515 mg/kg; C. semi - logarithmic plot of plasma concentration of Visabron c(4-4) vs time (n = 4 , mean ± SD). […]
For peptide sequencing, the protein digest mixture was subjected to electrospray ionization MS/MS analysis using a QTrap mass spectrometer, equipped with a nanospray source. […] Quantitation of free cysteine residues and disulfide bonds was done as previously described4. […]

T4 sequence (P13612 34-1032): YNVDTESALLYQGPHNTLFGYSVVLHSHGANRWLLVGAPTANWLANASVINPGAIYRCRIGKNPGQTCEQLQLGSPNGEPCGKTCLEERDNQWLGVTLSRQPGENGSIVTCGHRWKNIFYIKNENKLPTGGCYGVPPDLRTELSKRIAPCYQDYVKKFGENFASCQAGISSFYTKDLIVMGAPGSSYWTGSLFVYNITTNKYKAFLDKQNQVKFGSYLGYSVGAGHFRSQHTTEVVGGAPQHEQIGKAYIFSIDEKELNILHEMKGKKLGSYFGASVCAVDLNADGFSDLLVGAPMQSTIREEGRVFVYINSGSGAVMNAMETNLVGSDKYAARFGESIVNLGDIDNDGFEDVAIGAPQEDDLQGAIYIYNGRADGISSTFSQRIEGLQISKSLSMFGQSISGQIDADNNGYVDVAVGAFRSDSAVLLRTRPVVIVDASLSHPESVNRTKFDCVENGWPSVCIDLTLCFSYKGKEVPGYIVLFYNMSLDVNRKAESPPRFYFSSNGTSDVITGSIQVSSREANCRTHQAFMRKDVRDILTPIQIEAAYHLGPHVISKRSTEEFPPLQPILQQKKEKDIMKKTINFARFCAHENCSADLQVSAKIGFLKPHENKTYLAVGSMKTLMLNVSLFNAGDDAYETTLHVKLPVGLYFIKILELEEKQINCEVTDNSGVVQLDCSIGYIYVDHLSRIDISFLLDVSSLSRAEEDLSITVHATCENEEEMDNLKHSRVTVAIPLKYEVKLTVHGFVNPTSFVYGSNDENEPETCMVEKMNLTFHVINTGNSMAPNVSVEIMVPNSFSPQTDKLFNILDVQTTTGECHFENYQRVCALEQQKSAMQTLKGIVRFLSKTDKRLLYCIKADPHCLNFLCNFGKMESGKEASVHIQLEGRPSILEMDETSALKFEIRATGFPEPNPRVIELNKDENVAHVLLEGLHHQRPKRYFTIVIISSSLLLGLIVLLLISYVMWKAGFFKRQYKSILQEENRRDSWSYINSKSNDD
T4 sequence (P05556 21-798): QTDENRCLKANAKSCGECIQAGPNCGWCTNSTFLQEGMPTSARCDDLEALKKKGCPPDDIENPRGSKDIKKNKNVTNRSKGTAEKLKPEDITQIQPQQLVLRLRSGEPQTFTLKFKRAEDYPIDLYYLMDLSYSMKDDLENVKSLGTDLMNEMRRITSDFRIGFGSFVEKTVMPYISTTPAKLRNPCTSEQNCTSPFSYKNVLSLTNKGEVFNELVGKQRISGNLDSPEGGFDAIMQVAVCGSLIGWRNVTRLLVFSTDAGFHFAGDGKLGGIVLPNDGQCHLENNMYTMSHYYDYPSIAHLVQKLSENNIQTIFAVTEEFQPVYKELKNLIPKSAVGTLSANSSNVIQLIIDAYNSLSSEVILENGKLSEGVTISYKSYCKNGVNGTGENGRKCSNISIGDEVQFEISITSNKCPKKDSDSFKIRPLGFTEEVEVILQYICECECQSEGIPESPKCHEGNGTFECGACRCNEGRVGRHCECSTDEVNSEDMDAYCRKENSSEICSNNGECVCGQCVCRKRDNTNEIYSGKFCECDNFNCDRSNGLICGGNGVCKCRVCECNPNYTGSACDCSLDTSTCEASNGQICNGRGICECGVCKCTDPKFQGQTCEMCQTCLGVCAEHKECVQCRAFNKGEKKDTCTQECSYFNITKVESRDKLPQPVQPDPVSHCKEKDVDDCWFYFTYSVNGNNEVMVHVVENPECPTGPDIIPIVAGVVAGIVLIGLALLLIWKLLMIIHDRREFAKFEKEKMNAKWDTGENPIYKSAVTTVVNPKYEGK
T2 sequence (P17301 30-1181): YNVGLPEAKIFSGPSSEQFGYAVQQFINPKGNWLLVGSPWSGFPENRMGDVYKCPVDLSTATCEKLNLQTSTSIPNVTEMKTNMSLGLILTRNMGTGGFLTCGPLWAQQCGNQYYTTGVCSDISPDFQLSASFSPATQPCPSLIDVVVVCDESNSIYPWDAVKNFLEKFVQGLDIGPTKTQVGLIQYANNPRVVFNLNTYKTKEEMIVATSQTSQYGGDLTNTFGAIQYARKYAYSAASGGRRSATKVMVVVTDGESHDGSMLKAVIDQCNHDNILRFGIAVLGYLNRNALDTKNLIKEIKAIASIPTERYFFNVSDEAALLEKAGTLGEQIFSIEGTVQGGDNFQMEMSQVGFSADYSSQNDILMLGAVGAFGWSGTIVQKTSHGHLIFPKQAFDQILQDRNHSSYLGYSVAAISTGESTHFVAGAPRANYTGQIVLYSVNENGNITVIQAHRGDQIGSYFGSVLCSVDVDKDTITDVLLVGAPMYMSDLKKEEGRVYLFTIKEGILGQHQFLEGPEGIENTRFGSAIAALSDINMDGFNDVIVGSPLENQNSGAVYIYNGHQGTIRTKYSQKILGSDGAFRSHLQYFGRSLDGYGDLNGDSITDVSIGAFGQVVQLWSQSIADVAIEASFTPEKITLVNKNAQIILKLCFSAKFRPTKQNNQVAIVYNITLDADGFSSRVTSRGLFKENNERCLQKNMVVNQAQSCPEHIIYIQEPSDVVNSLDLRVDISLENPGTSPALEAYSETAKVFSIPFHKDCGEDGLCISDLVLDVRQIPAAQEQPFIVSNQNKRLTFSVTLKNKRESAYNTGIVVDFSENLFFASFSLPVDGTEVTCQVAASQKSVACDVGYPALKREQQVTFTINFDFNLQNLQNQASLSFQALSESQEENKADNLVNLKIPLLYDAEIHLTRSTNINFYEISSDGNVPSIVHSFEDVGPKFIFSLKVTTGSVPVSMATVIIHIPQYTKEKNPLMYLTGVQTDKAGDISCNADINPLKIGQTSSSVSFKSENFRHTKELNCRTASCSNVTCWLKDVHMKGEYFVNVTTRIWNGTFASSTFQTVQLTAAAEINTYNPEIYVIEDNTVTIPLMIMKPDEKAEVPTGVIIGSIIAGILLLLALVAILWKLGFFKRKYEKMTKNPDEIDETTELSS
T2 sequence (P05556 21-798): as the sequence (P05556 21-798) above
T3 sequence (P08648 42-894 limits assumed): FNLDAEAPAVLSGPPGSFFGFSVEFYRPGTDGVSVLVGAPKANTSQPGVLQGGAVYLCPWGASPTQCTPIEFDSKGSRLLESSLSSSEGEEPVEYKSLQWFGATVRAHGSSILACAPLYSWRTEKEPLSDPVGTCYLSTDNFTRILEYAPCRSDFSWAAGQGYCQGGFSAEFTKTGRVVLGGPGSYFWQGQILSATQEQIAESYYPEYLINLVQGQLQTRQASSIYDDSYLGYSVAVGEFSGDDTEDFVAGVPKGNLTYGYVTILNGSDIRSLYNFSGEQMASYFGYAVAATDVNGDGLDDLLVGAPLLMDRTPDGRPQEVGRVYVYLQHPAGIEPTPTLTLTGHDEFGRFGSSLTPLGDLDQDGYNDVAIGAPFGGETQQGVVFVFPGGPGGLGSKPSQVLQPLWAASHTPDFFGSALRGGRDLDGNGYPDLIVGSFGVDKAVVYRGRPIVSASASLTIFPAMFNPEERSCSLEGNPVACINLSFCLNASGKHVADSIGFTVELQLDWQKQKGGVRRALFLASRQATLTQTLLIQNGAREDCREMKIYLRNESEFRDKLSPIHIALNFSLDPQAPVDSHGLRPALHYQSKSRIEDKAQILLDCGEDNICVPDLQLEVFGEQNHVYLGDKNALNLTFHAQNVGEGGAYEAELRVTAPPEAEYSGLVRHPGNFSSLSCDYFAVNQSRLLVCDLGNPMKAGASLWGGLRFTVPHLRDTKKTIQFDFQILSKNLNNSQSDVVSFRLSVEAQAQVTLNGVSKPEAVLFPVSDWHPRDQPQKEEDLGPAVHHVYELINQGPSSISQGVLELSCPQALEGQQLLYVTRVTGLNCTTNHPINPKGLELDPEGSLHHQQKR
T3 sequence (P08648 895-1049 limits assumed): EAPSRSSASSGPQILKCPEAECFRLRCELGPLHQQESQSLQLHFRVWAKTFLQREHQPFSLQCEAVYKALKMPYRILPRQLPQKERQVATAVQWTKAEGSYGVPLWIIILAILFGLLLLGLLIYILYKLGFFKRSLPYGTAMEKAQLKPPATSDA
T3 sequence (P05556 21-798): as the sequence (P05556 21-798) above
T5 sequence (Q13797 30-1035): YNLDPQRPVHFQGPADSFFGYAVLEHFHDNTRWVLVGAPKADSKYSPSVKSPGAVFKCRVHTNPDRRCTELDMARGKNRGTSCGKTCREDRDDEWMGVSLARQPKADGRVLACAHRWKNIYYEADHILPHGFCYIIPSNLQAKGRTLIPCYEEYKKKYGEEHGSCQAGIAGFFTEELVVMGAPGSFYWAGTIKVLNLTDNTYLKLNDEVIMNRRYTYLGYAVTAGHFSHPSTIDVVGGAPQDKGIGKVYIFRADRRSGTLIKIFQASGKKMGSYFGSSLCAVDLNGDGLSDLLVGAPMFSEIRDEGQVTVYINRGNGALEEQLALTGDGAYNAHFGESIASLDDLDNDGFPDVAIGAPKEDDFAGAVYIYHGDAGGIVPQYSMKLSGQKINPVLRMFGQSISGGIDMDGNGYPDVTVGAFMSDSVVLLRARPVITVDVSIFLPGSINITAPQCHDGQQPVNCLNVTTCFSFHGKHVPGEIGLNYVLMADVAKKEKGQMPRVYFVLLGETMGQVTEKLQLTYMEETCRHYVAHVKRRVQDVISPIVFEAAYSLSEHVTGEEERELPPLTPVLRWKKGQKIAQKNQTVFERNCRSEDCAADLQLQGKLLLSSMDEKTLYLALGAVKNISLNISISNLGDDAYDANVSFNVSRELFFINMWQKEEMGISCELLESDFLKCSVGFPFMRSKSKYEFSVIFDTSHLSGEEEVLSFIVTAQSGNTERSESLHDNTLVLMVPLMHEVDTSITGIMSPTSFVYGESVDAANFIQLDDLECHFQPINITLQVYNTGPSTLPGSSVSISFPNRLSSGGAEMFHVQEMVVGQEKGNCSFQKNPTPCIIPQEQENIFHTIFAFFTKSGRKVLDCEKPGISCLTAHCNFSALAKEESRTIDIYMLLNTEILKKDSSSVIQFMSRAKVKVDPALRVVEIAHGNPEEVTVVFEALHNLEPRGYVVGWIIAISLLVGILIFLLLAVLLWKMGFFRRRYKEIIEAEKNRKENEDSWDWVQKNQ
T5 sequence (P05556 21-798): as the sequence (P05556 21-798) above

For the molecule `CSCC[C@H](NC(=O)[C@@H](NC(=O)CNC(=O)[C@@H](N)CCCCN)[C@@H](C)O)C(=O)N[C@@H](CC(C)C)C(=O)N[C@@H](CC(=O)O)C(=O)NCC(=O)N[C@@H](CC(C)C)C(N)=O` [sequence 6, KG39TMLDG44L] (H-KGTMLDGL-NH2; N-terminus and C-terminus assumed), the IC50 (as a rule, the midpoint of a concentration-inhibition curve) on α1β1-collagen IV was more than 10 mM; at α2β1-collagen I, more than 10 mM; at α5β1-fibronectin, more than 10 mM; in data set [1], 1.55 ± 0.125 mM; on α9β1, 1.45 ± 0.125 mM. Besides, the half-life (commonly the time in which the quantity being followed falls by half) in data set [2] came out at 7 min.
